One assay concerns old rats. In words: Effect on sleep patterns (EEG pattern) in old rats. Format: in vivo. The note with it: single dose, ip. As to the method: In these animals the EEG patterns are disturbed. Administration of an effective amount of a CCK-B antagonist to such an animal alters the EEG pattern towards the normal. These effects may be observed using standard procedures such as those described by H.Depoortere et al. Physiology & Behaviour 1993, 54, 785-793.
The ability of CCK-B antagonists to effect sleep patterns in old rats was measured by examining the effect of the compound on the EEG pattern using the procedures described by H Depoortere et al. Physiology & Behaviour 1993 54, 785-793.
For `O=C(Nc1cccc(C(=O)O)c1)NC1C(=O)N(CC23CC4CC(CC(C4)C2)C3)c2ccccc2N(c2ccccc2)C1=O` (stereo not drawn) [Compound 5, N-1[-(Adamantylmethyl)-2,4,-dioxo-5-phenyl-2,3,4,5-tetrahydro-1H-1,5-benzodiazepin-3-yl]-N′-(3-carboxyphenyl)urea], the “Dose that resulted in a significant improvement in total sleep time pattern” value was 15 µg/kg.

For `Cc1cccc(NC(=O)NC2N=C(c3ccccc3)c3ccccc3N(C)C2=O)c1` (stereo not drawn) [Compound 3, N-(2,3-dihydro-1-methyl-2-oxo-5-phenyl-1H-1,4-benzodiazepin-3-yl]-N′-3-methylphenyl urea], the “Dose that resulted in a significant improvement in total sleep time pattern” value is 5 µg/kg. `CC(CNCC(NC(=O)CCC(=O)O)c1ccccc1)(Cc1c[nH]c2ccccc12)NC(=O)OC1C2CC3CC(C2)CC1C3.CNCC(O)C(O)C(O)C(O)CO` (stereo not drawn) [Compound 4, (R-(R*, R*))4-((2-((3-(1H-indol-3-yl)-2-methyl-2-((tricyclo(3,3,1,1,3,7)dec-2yloxy)carbonyl)aminopropyl)amino)-1-phenylethyl)amino-4-oxo-butanoic acid meglumine salt]: the “Dose that resulted in a significant improvement in total sleep time pattern” value amounted to 5 µg/kg. On to `O=C(Nc1ccccc1)NC1C(=O)N(CCN2CCOCC2)c2ccccc2N(CC23CC4CC(CC(C4)C2)C3)C1=O` (single isomer, unassigned; (-)) [Compound 2, (−) N-[1-(1-Adamantylmethyl)-2,4-dioxo-5-[2-(4-morpholino)ethyl]-2,3,4,5-tetrahydro-1H-benzodiazepin-3-yl]-N′-phenylurea], for which the “Dose that resulted in a significant improvement in total sleep time pattern” value worked out at 0.5 µg/kg. With `CN(C)CCN1C(=O)C(NC(=O)Nc2ccccc2)C(=O)N(CC23CC4CC(CC(C4)C2)C3)c2ccccc21` (stereo not drawn) [Compound 6], the “Dose that resulted in a significant improvement in total sleep time pattern” value stood at 0.5 µg/kg.

The same assay, now with this note: single dose, ip and po.
With `O=C(Nc1ccccc1)NC1C(=O)N(CC23CC4CC(CC(C4)C2)C3)c2ccccc2N(c2ccccc2)C1=O` (single isomer, unassigned; (+)) [Compound 1, (+) N-phenyl-N′-[2,3,4,5-tetrahydro-2,4-dioxo-1-(1-adamantylmethyl)-5-phenyl-1H-1,5-benzodiazepin-3-yl]urea], the “Dose that resulted in a significant improvement in total sleep time pattern” value is 5 µg/kg.

Source of the values: patent US6413930B1, “Use of cck-b receptor antagonists for the treatment of sleep disorders” (Glaxo Wellcome Spa, priority 1994, dated 2002).
